Laboratory results taken from patent publication US10399939B2, “Tetrahydronaphthalene estrogen receptor modulators and uses thereof” (Genentech, Inc., priority 2015, dated 2019).

Target: ER-alpha (WT) (Homo sapiens (Human), UniProt P03372)
Assay: Breast Cancer Cell ERa High Content Fluorescence Imaging Degradation Assay (ER-alpha MCF7 HCS)
Format: cell-based
Conditions: for ER-alpha (WT) MCF7 HCS (S inf): plateau of the maximal effect (ERa degradation), DMSO and 5 nM Fulvestrant define 0% and 100% changes in ESR1; for degradation activities measured as ER-alpha MCF7 HCS Sinf (%) values (in words): MCF7 cells
Procedure: Example 901: Breast Cancer Cell ERa High Content Fluorescence Imaging Degradation Assay
MCF7 breast cancer cells were seeded on day 1 at a density of 10,000 cells per well in 384 well poly-lysine coated tissue culture plate (Greiner # T-3101-4), in 50 µL/well RPMI (phenol red free), 10% FBS (Charcoal stripped), containing L-glutamine. […] Compounds and controls were dispensed using a Labcyte Echo acoustic dispenser to dispense compounds with a pre-defined serial dilution (1.8×, 10 point, in duplicate) and appropriate backfill and control compounds (final total volume transferred was 417.5 nL and compound dispense volume ranges from 2.5 nL to 417.5 nL; 0.84% DMSO (v/v) final), ultimately producing a concentration range from 0.05 nM to 835 nM. Cell plates were incubated at 37° C., for 4 hours. Fixation and permeabilization were carried out using a Biotek EL406 plate washer and dispenser as follows. Cells were fixed by addition of 15 μL of 16% paraformaldehyde (Electron Microscopy Sciences #15710-S) directly to the 50 μL cell culture medium in each well using the peristaltic pump 5 μL cassette on a Biotek EL406 (final concentration of formaldehyde was 3.7% w/v). Samples were incubated 30 minutes. Well contents was aspirated and 50 μL/well of Phosphate Buffered Saline (PBS) containing 0.5% w/v bovine serum albumen, 0.5% v/v Triton X-100 (Antibody Dilution Buffer) was added to each well. Samples were incubated for 30 minutes. Well contents were aspirated and washed 3 times with 100 μL/well of PBS. Immunofluorescence staining of estrogen receptor alpha (ESR1) was carried out using a Biotek EL406 plate washer and dispenser as follows. The well supernatant was aspirated from the wells and 25 μL/well of anti-ESR1 mAb (F10) (Santa Cruz sc-8002) diluted 1:1000 in Antibody Dilution Buffer was dispensed. Samples were incubated for 2 hours at room temperature. Samples were washed 4 times with 100 μL/well of PBS. 25 μL (microliters)/well of secondary antibody solution (Alexafluor® 488 conjugate anti-mouse IgG (LifeTechnologies #A21202) diluted 1:1000 and Hoechst 33342 1 μg/ml diluted in Antibody Dilution Buffer) were dispensed into each well. Samples were incubated for 2 hours at room temperature. Samples were washed 3 times with 100 μL/well of PBS using a Biotek EL406. Quantitative fluorescence imaging of ESR1 was carried out using a Cellomics Arrayscan V® (Thermo). Fluorescence images of the samples (Channel 1: XF53 Hoechst (DNA stain); Channel 2: XF53 FITC (ESR1 stain)) were acquired using a Cellomics VTI Arrayscan using the Bioapplication “Compartmental Analysis” using the auto-exposure (based on DMSO control wells) setting “peak target percentile” set to 25% target saturation for both channels. Channel 1 (DNA stain) was used to define the nuclear region (Circ). Measurements of “Mean_CircAvgIntCh2”, which is the Alexafluor 488 fluorescence intensity (ESR1) within the nuclear region, was measured on a per cell basis and averaged over all the measured cells. Data analysis was carried out using Genedata Screener Software, with DMSO and 5 nM Fulvestrant treated samples being used to define the 0% and 100% changes in ESR1. The “Robust Fit” method was used to define the inflexion point of curve (EC50) and the plateau of the maximal effect (Sinf).

[1] = MCF7 breast cancer cells, 4 hours incubation, inflexion point of curve

Chain of ER-alpha (WT) (P03372 whole entry): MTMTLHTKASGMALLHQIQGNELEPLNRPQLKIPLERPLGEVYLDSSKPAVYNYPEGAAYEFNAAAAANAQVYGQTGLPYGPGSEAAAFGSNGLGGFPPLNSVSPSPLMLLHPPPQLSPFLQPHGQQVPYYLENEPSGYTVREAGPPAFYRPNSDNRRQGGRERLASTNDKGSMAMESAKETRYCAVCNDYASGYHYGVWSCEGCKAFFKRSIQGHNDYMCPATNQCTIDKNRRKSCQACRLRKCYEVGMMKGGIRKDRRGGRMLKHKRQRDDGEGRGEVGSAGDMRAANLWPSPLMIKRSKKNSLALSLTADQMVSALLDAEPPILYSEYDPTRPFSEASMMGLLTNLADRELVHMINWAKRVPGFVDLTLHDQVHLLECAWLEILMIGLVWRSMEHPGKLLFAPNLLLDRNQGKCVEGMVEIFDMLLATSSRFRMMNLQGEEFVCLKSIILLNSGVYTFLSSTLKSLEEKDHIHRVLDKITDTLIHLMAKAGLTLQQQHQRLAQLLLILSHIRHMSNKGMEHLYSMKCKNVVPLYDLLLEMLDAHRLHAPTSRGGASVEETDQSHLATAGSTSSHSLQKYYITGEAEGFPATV

| SMILES | EC50 [1] | ER-alpha (WT) MCF7 HCS (S inf) (MCF7 breast cancer cells) | degradation activities measured as ER-alpha MCF7 HCS Sinf (%) values (in words) | ER-alpha (WT) MCF7 HCS (EC50) [1] |
| --- | --- | --- | --- | --- |
| CN1CC(CCOc2ccc([C@@H]3c4ccc(O)cc4CC[C@@H]3c3ccccc3)cc2)C1 (stereo in doubt) [A, (5R,6S)-5-(4-(2-(1-methylazetidin-3-yl)ethoxy)phenyl)-6-phenyl-5,6,7,8-tetrahydronaphthalen-2-ol, reference compound] | 19 nM | −58% | low |  |
| Oc1ccc2c(c1)CC[C@H](c1ccccc1)[C@@H]2c1ccc(OCCN2CC(CF)C2)cc1F [Compound 120, (5S,6S)-5-(2-fluoro-4-(2-(3-(fluoromethyl)azetidin-1-yl)ethoxy)phenyl)-6-phenyl-5,6,7,8-tetrahydronaphthalen-2-ol] | 0.036 nM | −98.8% |  |  |
| Oc1ccc2c(c1)CC[C@@H](c1ccccc1)[C@H]2c1c(F)cc(OCCN2CC(CF)C2)cc1F [Compound 104, (1R,2R)-1-[2,6-difluoro-4-[2-[3-(fluoromethyl)azetidin-1-yl]ethoxy]phenyl]-2-phenyl-tetralin-6-ol] | 15.6 nM | −95% |  |  |
| Oc1ccc2c(c1)CC[C@@H](c1ccccc1)[C@H]2c1ccc(OCCN2CC(CF)C2)cc1 [Compound 102, (1S,2R)-1-[4-[2-[3-(fluoromethyl)azetidin-1-yl]ethoxy]phenyl]-2-phenyl-tetralin-6-ol] | 8.12 nM | −94.7% |  |  |
| Oc1ccc2c(c1)CC[C@@H](c1ccc(F)cc1)[C@H]2c1ccc(OCCN2CC(CF)C2)cc1 [Compound 103, (1S,2R)-1-[4-[2-[3-(fluoromethyl)azetidin-1-yl]ethoxy]phenyl]-2-(4-fluorophenyl)tetralin-6-ol] | 38.6 nM | −78% |  |  |
| Oc1ccc2c(c1)CC[C@H](c1ccccc1)[C@@H]2c1c(F)cc(OCCN2CC(CF)C2)cc1F [Compound 105, (1S,2S)-1-[2,6-difluoro-4-[2-[3-(fluoromethyl)azetidin-1-yl]ethoxy]phenyl]-2-phenyl-tetralin-6-ol] | 0.0404 nM | −98.7% |  |  |
| Oc1ccc2c(c1)CC[C@H](C1CCOCC1)[C@@H]2c1ccc(OCCN2CC(CF)C2)cc1 [Compound 107, (5R,6R)-5-(4-(2-(3-(fluoromethyl)azetidin-1-yl)ethoxy)phenyl)-6-(tetrahydro-2H-pyran-4-yl)-5,6,7,8-tetrahydronaphthalen-2-ol] | 16.4 nM | −87.8% |  |  |
| CS(=O)(=O)c1ccc([C@@H]2CCc3cc(O)ccc3[C@@H]2c2ccc(OCCN3CC(CF)C3)cc2)cc1 [Compound 115, (5S,6R)-5-(4-(2-(3-(fluoromethyl)azetidin-1-yl)ethoxy)phenyl)-6-(4-(methylsulfonyl)phenyl)-5,6,7,8-tetrahydronaphthalen-2-ol] | 39.4 nM | −75% |  |  |
| CN1CC(CCOc2ccc([C@H]3c4ccc(O)cc4CC[C@H]3c3ccccc3)cc2)C1 (stereo in doubt) [B, (5S,6R)-5-(4-(2-(1-methylazetidin-3-yl)ethoxy)phenyl)-6-phenyl-5,6,7,8-tetrahydronaphthalen-2-ol, reference compound] | 0.026 nM | −43.35% | low |  |
| Oc1ccc2c(c1)CC[C@@H](c1ccccc1)[C@H]2c1ccc(OCCN2CC(CCl)C2)cc1 [Compound 113, (5S,6R)-5-(4-(2-(3-(chloromethyl)azetidin-1-yl)ethoxy)phenyl)-6-phenyl-5,6,7,8-tetrahydronaphthalen-2-ol] | 0.177 nM | −93.6% |  |  |
| Oc1ccc2c(c1)CC[C@H](c1ccccc1)[C@@H]2c1ccc(OCCN2CC(C(F)F)C2)cc1 [Compound 118, (5R,6S)-5-(4-(2-(3-(difluoromethyl)azetidin-1-yl)ethoxy)phenyl)-6-phenyl-5,6,7,8-tetrahydronaphthalen-2-ol] | 0.184 nM | −93.6% |  |  |

Results, then the compound that gave them:

| EC50 [1] | ER-alpha (WT) MCF7 HCS (S inf) (MCF7 breast cancer cells) | degradation activities measured as ER-alpha MCF7 HCS Sinf (%) values (in words) | ER-alpha (WT) MCF7 HCS (EC50) [1] | SMILES |
| --- | --- | --- | --- | --- |
| 0.0385 nM | −99.2% |  |  | N#Cc1ccc([C@@H]2CCc3cc(O)ccc3[C@@H]2c2ccc(OCCN3CC(CF)C3)cc2)cc1 [Compound 134, 4-((1S,2R)-1-(4-(2-(3-(fluoromethyl)azetidin-1-yl)ethoxy)phenyl)-6-hydroxy-1,2,3,4-tetrahydronaphthalen-2-yl)benzonitrile] |
| 0.675 nM | −97.1% |  |  | C[C@H](CN1CC[C@@H](CF)C1)Oc1ccc([C@H]2c3ccc(O)cc3CC[C@H]2c2ccccc2)cc1 [Compound 126, (5S,6R)-5-(4-(((R)-1-((R)-3-(fluoromethyl)pyrrolidin-1-yl)propan-2-yl)oxy)phenyl)-6-phenyl-5,6,7,8-tetrahydronaphthalen-2-ol] |
| 228 nM | −50% |  |  | Oc1ccc2c(c1)CC[C@H](c1ccccc1)[C@@H]2c1ccc(NCCN2CC[C@@H](CF)C2)cc1 [Compound 139, (5R,6S)-5-(4-((2-((R)-3-(fluoromethyl)pyrrolidin-1-yl)ethyl)amino)phenyl)-6-phenyl-5,6,7,8-tetrahydronaphthalen-2-ol] |
| 0.208 nM | −98.5% |  |  | Oc1ccc2c(c1)CCC1(CCCC1)[C@H]2c1ccc(OCCN2CC(CF)C2)cc1 [Compound 121, (S)-1′-(4-(2-(3-(fluoromethyl)azetidin-1-yl)ethoxy)phenyl)-3′,4′-dihydro-1′H-spiro[cyclopentane-1,2′-naphthalen]-6′-ol] |
| 0.451 nM | −99.2% |  |  | Oc1ccc2c(c1)CCC1(CCCC1)[C@@H]2c1ccc(OCCN2CC(CF)C2)cc1 [Compound 122, (R)-1′-(4-(2-(3-(fluoromethyl)azetidin-1-yl)ethoxy)phenyl)-3′,4′-dihydro-1′H-spiro[cyclopentane-1,2′-naphthalen]-6′-ol] |
| 0.107 nM | −99.3% |  |  | Oc1ccc2c(c1)CC[C@H](c1ccccc1)[C@@H]2c1ccc(OC2CN(CCCF)C2)cc1 [Compound 130, (5R,6S)-5-(4-((1-(3-fluoropropyl)azetidin-3-yl)oxy)phenyl)-6-phenyl-5,6,7,8-tetrahydronaphthalen-2-ol] |
|  |  |  | >0.10 µmol | Oc1ccc2c(c1)CC[C@@H](c1ccccc1)[C@H]2c1ccc(OC2CN(CCCF)C2)cc1 [Compound 129, (5S,6R)-5-(4-((1-(3-fluoropropyl)azetidin-3-yl)oxy)phenyl)-6-phenyl-5,6,7,8-tetrahydronaphthalen-2-ol] |
| 0.029 nM | −99.9% |  |  | Oc1ccc2c(c1)CC[C@H](c1ccccc1)[C@@H]2c1ccc(NC2CN(CCCF)C2)cc1 [Compound 132, (5R,6S)-5-(4-((1-(3-fluoropropyl)azetidin-3-yl)amino)phenyl)-6-phenyl-5,6,7,8-tetrahydronaphthalen-2-ol] |
| 186 nM | −80% |  |  | Oc1ccc2c(c1)CC[C@H](c1ccccc1)[C@@H]2c1ccc(NCCN2CC(CF)C2)cc1 [Compound 137, (5R,6S)-5-(4-((2-(3-(fluoromethyl)azetidin-1-yl)ethyl)amino)phenyl)-6-phenyl-5,6,7,8-tetrahydronaphthalen-2-ol] |
| 53 nM | −30% |  |  | N#Cc1ccc([C@H]2CCc3cc(O)ccc3[C@H]2c2ccc(OCCN3CC(CF)C3)cc2)cc1 [Compound 133, 4-((1R,2S)-1-(4-(2-(3-(fluoromethyl)azetidin-1-yl)ethoxy)phenyl)-6-hydroxy-1,2,3,4-tetrahydronaphthalen-2-yl)benzonitrile] |
| 0.0371 nM | −93.4% |  |  | C[C@@H](COc1ccc([C@H]2c3ccc(O)cc3CC[C@H]2c2ccccc2)cc1)N1CC[C@@H](CF)C1 [Compound 124, (5S,6R)-5-(4-((S)-2-((R)-3-(fluoromethyl)pyrrolidin-1-yl)propoxy)phenyl)-6-phenyl-5,6,7,8-tetrahydronaphthalen-2-ol] |
